Laboratory results from PubChem BioAssay (NCI).
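A five-concentration, 48-hour dose response in 96-well plates underlies each endpoint, interpolated linearly between surrounding concentrations. TGI: total growth inhibition.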

Key:
Experiment in all cases: growth of human tumour cells (NCI), 48 h
[1] = tested on: 786-0 renal
[2] = tested on: CAKI-1 renal
[3] = tested on: HCC-2998 colon
[4] = tested on: HOP-62 NSCLC
[5] = tested on: HS 578T breast
[6] = tested on: HT29 colon
[7] = tested on: MDA-N
[8] = tested on: NCI-H522 lung
[9] = tested on: OVCAR-3 ovarian
[10] = tested on: OVCAR-4 ovarian
[11] = tested on: PC-3 prostate
[12] = tested on: U251 CNS
[13] = tested on: DMS 114 small cell lung
[14] = tested on: DMS 273 small cell lung
[15] = tested on: LXFL 529 NSCLC
[16] = tested on: KM20L2 colon
[17] = tested on: HOP-18 NSCLC

SMILES	TGI [1] [µM]	TGI [2] [µM]	TGI [3] [µM]	TGI [4] [µM]	TGI [5] [µM]	TGI [6] [µM]	TGI [7] [µM]	TGI [8] [µM]	TGI [9] [µM]	TGI [10] [µM]	TGI [11] [µM]	TGI [12] [µM]	TGI [13] [µM]	TGI [14] [µM]	TGI [15] [µM]	TGI [16] [µM]	TGI [17] [µM]
O=C1/C(=C/c2ccccc2[N+](=O)[O-])N=C(c2ccccc2)N1c1nc2ccccc2s1	58.8	> 100	43.1	72.2	62.4	> 100	71.9	40.1	51.9	51	> 100	> 100					
O=C(/C=C/c1ccccc1)Nc1ccccc1SCCCCl	> 100	> 100	73.9	> 100	> 29.3	> 41.4	28.6	24.3	> 92.1	> 100	> 100	> 82.8					
CC(=O)NNc1nc(C)c(C(/C=C/c2ccccc2O)=N/N=C(N)N)s1	> 100	> 100	> 100	> 100	> 100	> 100	> 100	> 100	> 100	> 100	> 100	> 100					
CCCCc1ccc(Nc2nc(OC)c3ncn(C4CC(O)C(CO)O4)c3n2)cc1 (stereo unspecified)	30.9	3.49	20.4	94.7	42	37.1	30	3.83	54.3	35.9	37.5	40					
Cc1cc(=O)oc2cc(OCC(O)COC(C)C)ccc12 (stereo unspecified)	> 100	> 100	> 100	> 100	> 100	> 100	> 100	> 100	> 100	> 100	> 100	> 100					
COc1ccccc1/C=C/C1=NN(c2cccc(S(=O)(=O)O)c2)C2(C1)C(Cl)C(=O)N2c1nc2ccccc2s1 (stereo unspecified)	> 59.8	> 74.3	> 100	> 100	> 100	> 100	> 100	> 58.8	> 100	> 100	> 100	> 100					
CCOC(=O)CC(NC(=O)c1[nH]cnc1/N=N/N(C)C)C(=O)OCC (stereo unspecified)	> 100	> 100	> 100	> 100		> 100		> 100	> 100	> 100		> 100	> 100	> 100	> 100		
Cn1c2c(c3ccccc31)CCN1C(=O)CCC21 (stereo unspecified)	> 10	> 10	> 10	> 10	> 10	> 10	> 10	> 10	> 10	> 10	> 10	> 10					
CC1C2C=C(O)C(=O)C(C2=O)C1c1ccccc1 (stereo unspecified)	> 100	> 100	> 100	> 100		> 100		> 100	> 100	> 100		> 100		> 100	> 100	> 100	
CSCSCC(CO)NC(=O)/C(C)=C\c1c(C)[nH]c(=O)[nH]c1=O (stereo unspecified)		> 250	> 250	> 250		> 250		> 250	> 250	> 250		> 250	> 250	> 250		> 250	
Cc1ccc2nc(C(C)C)c(=O)[nH]c2c1	> 100	> 100	> 100	30.9	> 100	> 100	> 100	> 100	32.8	> 100	34.1	> 100					
CN(C)c1c(C2OC(CO)C(O)C2O)c(=O)c1=O (stereo unspecified)	> 100	> 100	> 100	> 100	> 100	> 100	> 100	> 100	> 100	> 100	> 100	> 100					
CCOC(=O)/C=C(/C(=O)OCC)n1ccc(=O)n(Cc2cnnn2COCCOC(C)=O)c1=O	29.2	11.4	31.5	> 100	56.7	32	46.3	4.65	31	41.5	34.2	37.8					
COC1(OC)C2(Cl)C(Cl)=C(Cl)C1(Cl)C1C2C2CC1(C(=O)O)c1ccccc12 (stereo unspecified)	31.6	83.1	50.7	62.8		76.3			33.4	34.6		35.5	39.9	41.2	28	62.8	93.9
O=C1O[C@H]2[C@H](OC(=O)c3cc(O)c(O)c(O)c3)[C@@H](OC(=O)c3cc(O)c(O)c4c3[C@@H]3C1=CC(=O)C(O)(O)C3(O)O4)[C@H](OC(=O)c1cc(O)c(O)c(O)c1)O[C@@H]2COC(=O)c1cc(O)c(O)c(O)c1 (stereo partly specified)	> 100	> 100	> 100	> 100	> 100	> 100	> 100	> 100	> 100	> 100	> 100	> 100					
COc1ccc(N=NC(=O)NC(CC(C)C)C(=O)NCC(=O)O)cc1 (stereo unspecified)	> 100	> 100	> 87.5	> 100	> 100	> 100	> 100	> 100	> 100	> 100	> 100	> 100					
CC(C)CC(N)C(=O)Nc1ccc2ccccc2c1 (stereo unspecified)	> 100	> 100	> 100	> 100	> 100	> 100	> 100	> 100	> 100	54.5	> 100	> 100					
CC(C)=CCC[C@@H](C)C1=C(O)C(Nc2ccccc2Cl)=C(C)C(=O)C1=O	> 52	> 55	> 56.6	> 64.2	> 69.9	26.3	> 75	22.7	> 75	> 75	> 64.2	> 75					
